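In this assay, cells in 96-well plates receive the compound at five concentrations for 48 hours. Endpoints are linearly interpolated between the surrounding concentrations. At the TGI there is no net growth.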
What was measured:
Assay in all cases: growth of human tumour cells (NCI), 48 h
MDA-N = system: MDA-N
HL-60(TB) leukemia = system: HL-60(TB) leukemia
DLD-1 colon = system: DLD-1 colon
A498 renal = system: A498 renal
SF-295 CNS = system: SF-295 CNS
MOLT-4 leukemia = system: MOLT-4 leukemia
U251 CNS = system: U251 CNS
SK-MEL-28 melanoma = system: SK-MEL-28 melanoma
MDA-MB-231 breast = system: MDA-MB-231 breast
XF 498 CNS = system: XF 498 CNS
HCC-2998 colon = system: HCC-2998 colon
PC-3 prostate = system: PC-3 prostate
NCI/ADR-RES ovarian = system: NCI/ADR-RES ovarian
SK-MEL-2 melanoma = system: SK-MEL-2 melanoma
CCRF-CEM leukemia = system: CCRF-CEM leukemia
HOP-18 NSCLC = system: HOP-18 NSCLC
ACHN renal = system: ACHN renal
SK-OV-3 ovarian = system: SK-OV-3 ovarian
SR leukemia = system: SR leukemia
MCF7 breast = system: MCF7 breast
SK-MEL-5 melanoma = system: SK-MEL-5 melanoma
LXFL 529 NSCLC = system: LXFL 529 NSCLC
HOP-92 NSCLC = system: HOP-92 NSCLC
OVCAR-3 ovarian = system: OVCAR-3 ovarian
SF-539 CNS = system: SF-539 CNS
UACC-62 melanoma = system: UACC-62 melanoma
RXF-631 renal = system: RXF-631 renal
SNB-78 CNS = system: SNB-78 CNS
HCT-116 colon = system: HCT-116 colon
A549 NSCLC = system: A549 NSCLC
HT29 colon = system: HT29 colon
SNB-19 CNS = system: SNB-19 CNS
SW-620 colon = system: SW-620 colon
OVCAR-4 ovarian = system: OVCAR-4 ovarian
CAKI-1 renal = system: CAKI-1 renal
IGROV1 ovarian = system: IGROV1 ovarian
BT-549 breast = system: BT-549 breast
UO-31 renal = system: UO-31 renal
MDA-MB-435 = system: MDA-MB-435
HS 578T breast = system: HS 578T breast
SN12C renal = system: SN12C renal
T-47D breast = system: T-47D breast
SNB-75 CNS = system: SNB-75 CNS
HCT-15 colon = system: HCT-15 colon
OVCAR-8 ovarian = system: OVCAR-8 ovarian
NCI-H460 lung = system: NCI-H460 lung
NCI-H23 lung = system: NCI-H23 lung
TK-10 renal = system: TK-10 renal
RPMI-8226 leukemia = system: RPMI-8226 leukemia
HOP-62 NSCLC = system: HOP-62 NSCLC
DMS 114 small cell lung = system: DMS 114 small cell lung
NCI-H226 lung = system: NCI-H226 lung
EKVX NSCLC = system: EKVX NSCLC
UACC-257 melanoma = system: UACC-257 melanoma
RXF 393 renal = system: RXF 393 renal
MALME-3M melanoma = system: MALME-3M melanoma
LOX IMVI melanoma = system: LOX IMVI melanoma
KM12 colon = system: KM12 colon
M14 melanoma = system: M14 melanoma
SF-268 CNS = system: SF-268 CNS
M19-MEL melanoma = system: M19-MEL melanoma
DMS 273 small cell lung = system: DMS 273 small cell lung
786-0 renal = system: 786-0 renal
K-562 leukemia = system: K-562 leukemia
OVCAR-5 ovarian = system: OVCAR-5 ovarian
COLO 205 colon = system: COLO 205 colon
NCI-H522 lung = system: NCI-H522 lung
DU-145 prostate = system: DU-145 prostate
KM20L2 colon = system: KM20L2 colon
SN12K1 renal = system: SN12K1 renal

With `COC(=O)C1=C(C=O)C2C=CC1C2` (stereo not given) the TGI (MDA-N) was over 100 µM, the TGI (HL-60(TB) leukemia) was 50.6 µM and the TGI (DLD-1 colon) was 78.5 µM. For the same compound, the TGI (A498 renal) was over 100 µM, the TGI (SF-295 CNS) was over 100 µM and the TGI (MOLT-4 leukemia) was 71.2 µM. For the same compound, the TGI (U251 CNS) was over 100 µM, the TGI (SK-MEL-28 melanoma) was over 90.2 µM and the TGI (MDA-MB-231 breast) was over 100 µM. It also gave a TGI (XF 498 CNS) of 65.3 µM, a TGI (HCC-2998 colon) of over 100 µM and a TGI (PC-3 prostate) of over 100 µM. It also gave a TGI (NCI/ADR-RES ovarian) of over 100 µM, a TGI (SK-MEL-2 melanoma) of over 100 µM and a TGI (CCRF-CEM leukemia) of 55 µM. It also gave a TGI (HOP-18 NSCLC) of over 91.4 µM, a TGI (ACHN renal) of over 81.2 µM and a TGI (SK-OV-3 ovarian) of over 100 µM. For the same compound, the TGI (SR leukemia) was over 100 µM, the TGI (MCF7 breast) was over 100 µM and the TGI (SK-MEL-5 melanoma) was over 100 µM. The TGI (LXFL 529 NSCLC) was 39.7 µM, the TGI (HOP-92 NSCLC) was over 100 µM and the TGI (OVCAR-3 ovarian) was 95.5 µM. It also gave a TGI (SF-539 CNS) of over 100 µM, a TGI (UACC-62 melanoma) of over 100 µM and a TGI (RXF-631 renal) of over 100 µM. The TGI (SNB-78 CNS) was over 100 µM, the TGI (HCT-116 colon) was over 76.3 µM and the TGI (A549 NSCLC) was over 100 µM. The TGI (HT29 colon) was over 79.2 µM, the TGI (SNB-19 CNS) was over 100 µM and the TGI (SW-620 colon) was 62.6 µM. The TGI (OVCAR-4 ovarian) was over 100 µM, the TGI (CAKI-1 renal) was over 56.2 µM and the TGI (IGROV1 ovarian) was over 100 µM. The TGI (BT-549 breast) was over 100 µM, the TGI (UO-31 renal) was over 100 µM and the TGI (MDA-MB-435) was over 100 µM. The TGI (HS 578T breast) was over 100 µM, the TGI (SN12C renal) was over 90.1 µM and the TGI (T-47D breast) was over 100 µM. For the same compound, the TGI (SNB-75 CNS) was over 100 µM, the TGI (HCT-15 colon) was 62.2 µM and the TGI (OVCAR-8 ovarian) was over 94 µM. The TGI (NCI-H460 lung) was over 100 µM, the TGI (NCI-H23 lung) was over 100 µM and the TGI (TK-10 renal) was over 76 µM. The TGI (RPMI-8226 leukemia) was over 89.2 µM, the TGI (HOP-62 NSCLC) was over 100 µM and the TGI (DMS 114 small cell lung) was over 84.6 µM. The TGI (NCI-H226 lung) was over 100 µM, the TGI (EKVX NSCLC) was over 100 µM and the TGI (UACC-257 melanoma) was 71.3 µM. For the same compound, the TGI (RXF 393 renal) was over 100 µM, the TGI (MALME-3M melanoma) was over 100 µM and the TGI (LOX IMVI melanoma) was over 72.3 µM. The TGI (KM12 colon) was over 100 µM, the TGI (M14 melanoma) was 67.1 µM and the TGI (SF-268 CNS) was over 100 µM. The TGI (M19-MEL melanoma) was over 70.3 µM, the TGI (DMS 273 small cell lung) was over 65.1 µM and the TGI (786-0 renal) was over 100 µM. For the same compound, the TGI (K-562 leukemia) was 74.5 µM, the TGI (OVCAR-5 ovarian) was over 100 µM and the TGI (COLO 205 colon) was 66.3 µM. For the same compound, the TGI (NCI-H522 lung) was 61.4 µM, the TGI (DU-145 prostate) was over 100 µM and the TGI (KM20L2 colon) was over 100 µM.
Work on `CN(C)CC1CC/C(=C\c2ccc(Cl)cc2)C1=O` (stereo not given) yielded a TGI (HL-60(TB) leukemia) of 2.88 µM, a TGI (DLD-1 colon) of 12.5 µM and a TGI (A498 renal) of 24 µM. For the same compound, the TGI (SF-295 CNS) was 35.5 µM, the TGI (MOLT-4 leukemia) was 2.75 µM and the TGI (U251 CNS) was 14 µM. The TGI (SK-MEL-28 melanoma) was 10.4 µM, the TGI (XF 498 CNS) was 19.8 µM and the TGI (HCC-2998 colon) was 18.8 µM. It also gave a TGI (NCI/ADR-RES ovarian) of 16.1 µM, a TGI (SK-MEL-2 melanoma) of 26.6 µM and a TGI (CCRF-CEM leukemia) of 2.89 µM. It also gave a TGI (HOP-18 NSCLC) of 34 µM, a TGI (ACHN renal) of 25.7 µM and a TGI (SN12K1 renal) of 5.15 µM. It also gave a TGI (SK-OV-3 ovarian) of 24.5 µM, a TGI (MCF7 breast) of 7.47 µM and a TGI (SK-MEL-5 melanoma) of 24.2 µM. For the same compound, the TGI (LXFL 529 NSCLC) was 4.13 µM, the TGI (HOP-92 NSCLC) was 22.5 µM and the TGI (OVCAR-3 ovarian) was 18.7 µM. It also gave a TGI (SF-539 CNS) of 27.3 µM, a TGI (UACC-62 melanoma) of 21.7 µM and a TGI (RXF-631 renal) of 38.1 µM. For the same compound, the TGI (SNB-78 CNS) was 40.4 µM, the TGI (HCT-116 colon) was 9.41 µM and the TGI (A549 NSCLC) was 42.1 µM. The TGI (HT29 colon) was 23.7 µM, the TGI (SNB-19 CNS) was 30.1 µM and the TGI (SW-620 colon) was 7.44 µM. For the same compound, the TGI (OVCAR-4 ovarian) was 29.1 µM, the TGI (CAKI-1 renal) was 12.9 µM and the TGI (IGROV1 ovarian) was 31.1 µM. For the same compound, the TGI (UO-31 renal) was 30.5 µM, the TGI (SN12C renal) was 20.5 µM and the TGI (SNB-75 CNS) was 28.7 µM. It also gave a TGI (HCT-15 colon) of 9.75 µM, a TGI (OVCAR-8 ovarian) of 12.8 µM and a TGI (NCI-H460 lung) of 41.6 µM. The TGI (NCI-H23 lung) was 21.8 µM, the TGI (TK-10 renal) was 21.7 µM and the TGI (RPMI-8226 leukemia) was 2.41 µM. For the same compound, the TGI (HOP-62 NSCLC) was 41.5 µM, the TGI (DMS 114 small cell lung) was 20.7 µM and the TGI (NCI-H226 lung) was 35.8 µM. The TGI (EKVX NSCLC) was 30.1 µM, the TGI (UACC-257 melanoma) was 21.3 µM and the TGI (RXF 393 renal) was 8.66 µM. It also gave a TGI (MALME-3M melanoma) of 15 µM, a TGI (LOX IMVI melanoma) of 6.87 µM and a TGI (KM12 colon) of 13.7 µM. For the same compound, the TGI (M14 melanoma) was 22.5 µM, the TGI (SF-268 CNS) was 19.9 µM and the TGI (M19-MEL melanoma) was 10.7 µM. It also gave a TGI (DMS 273 small cell lung) of 12.9 µM, a TGI (786-0 renal) of 6.79 µM and a TGI (K-562 leukemia) of 4.46 µM. It also gave a TGI (OVCAR-5 ovarian) of 34.3 µM, a TGI (COLO 205 colon) of 12 µM and a TGI (NCI-H522 lung) of 6.94 µM. It also gave a TGI (KM20L2 colon) of 29.7 µM.

Reference: PubChem BioAssay (NCI)
